Columns and labels:
[1] = test system: rabbit corneal endothelial cells; assay: Cell morphology (phase-contrast) of cultured rabbit corneal endothelial cells under antimycin, oligomycin or glucose deprivation; type: cell-based; conditions: compound 50 μM
Procedure: (§1) Whole eyeballs of Japanese white rabbits (Funakoshi Corporation) were cut along corneal limbus with a razor blade and the corneas were isolated. The corneal endothelial cells were mechanically scraped off and collected with a crescent knife. Primary cultures were prepared in a DMEM with 10% fetal bovine serum and 2 ng/ml bFGF. The sub-confluent cells were treated with trypsin and collected, then plated on 12-well plates at the equal density of 4×10^4 cells/well and cultured in the same medium for 24 hours. The cells were subsequently cultured in the following eight different conditions: (1) control (the medium+DMSO), (2) the medium+KUS121 (50 μM), (3) the medium+antimycin (20 μM), (4) the medium+antimycin (20 μM)+KUS121 (50 μM), (5) the medium+oligomycin (10 μM), (6) the medium+oligomycin (10 μM)+KUS121 (50 μM), (7) DMEM with 2 ng/ml bFGF (non-glucose); and (8) DMEM with 2 ng/ml bFGF (non-glucose)+KUS121 (50 μM).
After the addition of the agents, sequential phase-contrast images of the cultured corneal endothelial cells were obtained.

[2] = test system: rabbit corneal endothelial cells; assay: Intracellular ATP concentration (luciferase assay) in cultured rabbit corneal endothelial cells; type: cell-based; conditions: compound 50 μM, FIG. 3
Procedure: as §1
The corneal endothelial cells cultured in the presence of the agents (P=1) were washed with PBS(−), treated with trypsin, suspended in the medium (DMEM with 10% fetal bovine serum and 2 ng/ml bFGF), and counted. Then 2.5×10^4 cells were centrifuged, suspended in PBS(−), and dispensed into 5 wells of a 96-well plate at the density of 5×10^3 cells/well. The cells were subjected to a luciferase assay (“Cell” ATP Assay reagent, TOYO B-Net CO., LTD.). The fluorescence intensities were measured as relative intracellular ATP concentrations using a luminometer.

[3] = test system: immortalized human corneal endothelial cells (iHCECs); assay: Cell morphology and apoptosis of thapsigargin-treated immortalized human corneal endothelial cells by phase-contrast microscopy; type: cell-based; conditions: 10 μM thapsigargin for 8 hours, compound 10, 25, 50 or 100 μM with 24 hours pretreatment, FIG. 4
Procedure: Corneas for research were imported from SightLife™ (Seattle, Wash.). The cornea endothelial cells were stripped from the corneas with Descemet's membranes and immersed in a corneal preservation solution (Optisol-GS, Bausch & Lomb Incorporated). The cornea endothelial cells were treated with collagenase and collected. The cells were cultured in a conditioned medium which was prepared by culturing 3T3 cells in OptiMEM (Gibco, 3195070) with 10% fetal bovine serum (FBS) for 24 hours and then adding 10 μM SB203580 (Funakoshi, 13067) and 1 μM SB431542 (Wako, 192-16541) to the culture medium.
The corneal endothelial cells were immortalized by the following procedures. SV40 large T antigen and hTERT genes were amplified by PCR, and introduced into a lentiviral vector (pLenti6.3-V5-TOPO; Life Technologies Inc.). The lentiviral vector and three helper plasmids (pLP1, pLP2, pLP/VSVG; Life Technologies Inc.) were transfected into 293T cells (RCB2202; Riken Bioresource Center, Ibaraki, Japan) with a transfection reagent (Fugene HD; Promega Corp., Madison, Wis.). The culture supernatant containing the virus was collected 48 hours after the transfection and added to the culture medium of the cornea endothelial cells with 5 μg/ml of Polybrene, thereby the SV40 large T antigen and hTERT genes were introduced into the cells. […]

[4] = test system: immortalized human corneal endothelial cells (iHCECs); assay: Western blot analysis of cleaved caspase 3 and PARP in thapsigargin-treated immortalized human corneal endothelial cells; type: cell-based; conditions: 10 μM thapsigargin for 8 hours, compound 10, 25, 50 or 100 μM, FIG. 5
Procedure: The medium was changed to the medium containing 10 μM thapsigargin (WAKO, 209-17281) and KUS121 (10 μM, 25 μM, 50 μM, or 100 μM), and the cells were cultured for 8 hours. Medium: DMEM+10% FBS+1% P/S
After the observation of the morphology, western blot analysis was performed by the following procedures.
The media were collected from each well on ice, the cells were washed twice with 1×PBS(−), and the washings were collected. In order to collect suspended cells and dead cells, the collected media and washings were centrifuged at 4° C., 800 g, for 12 minutes, the supernatants were discarded and the pellets were obtained. Protein extraction buffers (RIPA; 50 mM Tris-HCl (pH 7.4), 150 mM NaCl, 1 mM EDTA, 0.1% SDS, 0.5% DOC, 1% NP-40) were added to the washed cells on ice. The cells were suspended together with the pellets of the suspended cells and dead cells. […]
The protein extracts (7 μg each) were separated by SDS-PAGE and transferred to a nitrocellulose membrane. […] The signals were detected by Chemi Lumi ONE Ultra (NACALAI TESQUE, INC., 11644-40). The intensities of the detected bands were analyzed by luminescent image analyzer LAS-4000 mini (Fujifilm Corporation) and ImageQuant™ software (GE Healthcare).

rabbit corneas [5] = assay: Rabbit corneas preserved in Optisol-GS: HE-staining microscopic findings and central corneal thickness; conditions: Optisol-GS at 4° C., 1-4 weeks, KUS121 50 μM, KUS187 20 μM; for swelling of corneal endothelial cells during preservation: control swelled at week 1; for swelling of corneal endothelial cells during preservation / swelling of corneal stroma during preservation: FIG. 6; for swelling of corneal stroma during preservation: control swelled at week 3; for corneal epitheliums and cornea thicknesses versus control group: especially at week 3 or later, FIG. 6, 7
Procedure: (§2) Japanese white rabbits were euthanized, whole eyeballs were excised, and sclerocorneal preparations were prepared by using a razor blade. Each four sclerocorneal preparations were preserved in the following preservation solutions at 4° C. for 4 weeks; (1) Optisol-GS (control), (2) Optisol-GS+KUS121 (50 μM), or (3) Optisol-GS+KUS187 (20 μM). The tissues were sequentially embedded and sectioned.
The tissue sections were stained with HE-staining and observed by microscopy. The images were compared over time among the preservation conditions (FIG. 6). Microscopic images of the sections including the central parts of the corneas were obtained and the central corneal thicknesses were measured and compared over time among the preservation conditions (FIG. 7). In the corneas preserved in Optisol-GS (control), the corneal endothelial cells swelled at week 1 and the corneal stroma swelled at week 3.

[6] = test system: rabbit corneal epithelial cells; assay: Rabbit corneas preserved in Optisol-GS: apoptosis of corneal epithelial cells by TUNEL assay; conditions: Optisol-GS at 4° C., 1-4 weeks; KUS121 50 μM, KUS187 20 μM; FIG. 8-10
Procedure: as §2
The tissue sections were fluorescently stained by TUNEL method and observed by confocal microscopy. Images of the epithelial layers around the centers of the corneas were obtained in three different fields (FIG. 8). […] The total corneal epithelial cells stained with PI and the TUNEL-positive cells were counted and the percentages of the TUNEL-positive cells were calculated. The percentages were compared over time among the preservation conditions (FIG. 10). The TUNEL-positive apoptotic cells were increased in the corneal epithelial cells of the control group after week 1. The apoptosis was suppressed in the KUS121 and KUS187 groups.

[7] = test system: rabbit corneal endothelial cells; assay: Rabbit corneas preserved in Optisol-GS: corneal endothelia by immunofluorescence staining of Na+/K+ ATPase; conditions: Optisol-GS at 4° C., from week 1; KUS121 50 μM, KUS187 20 μM; FIG. 11
Procedure: as §2
The tissue sections were fluorescently stained with anti-Na+/K+ ATPase antibody, the corneal endothelia around the centers of the corneas were observed by indirect immunofluorescence microscopy, and the images were compared over time among the preservation conditions (FIG. 11).

rabbit corneas [8] = assay: Rabbit corneas preserved in Optisol-GS: transmission electron microscopy; conditions: corneas preserved for one week in Optisol-GS at 4° C., compound 50 μM, FIG. 13
Procedure: as §2
Corneas preserved for one week were immersed in 0.1 M phosphate buffer containing 2% glutaraldehyde at 4° C. for prefixation, in 0.1 M phosphate buffer at 4° C. overnight for washing, and in 2% aqueous osmium solution at 4° C. for 3 hours for postfixation. For dehydration the corneas were successively immersed in ethanol solutions of high concentrations (50, 70, 90, 100, 100, and 100%) at 4° C. (50%) or a room temperature for 15 minutes. For substitution the corneas were immersed in propylene oxide at a room temperature for 45 minutes and then in a mixture of propylene oxide and epoxy resin at a room temperature for 1.5 hours. For embedding the samples and epoxy resin were put into capsules and cured at 60° C. for 48 hours. Then 80-90 nm sections were prepared by using an ultramicrotome and put on 200 meshes. The sections were stained with 2% uranyl acetate and lead and reinforced by carbon deposition (reinforcement of sections against electron beams). […]

| Compound | death of corneal endothelial cells caused by antimycin ([1]; antimycin 20 μM, 28 hours after addition of the agents, FIG. 1) | death of corneal endothelial cells caused by glucose deprivation ([1]; cultured without glucose, 96 hours, FIG. 2) | death of corneal endothelial cells caused by oligomycin ([1]; oligomycin 10 μM, 28 hours after addition of the agents, FIG. 1) | decrease of intracellular ATP concentration in the absence of glucose ([2]; absence of glucose for 96 hours) | decrease of intracellular ATP concentration caused by antimycin ([2]; antimycin 20 μM for 27 hours) | decrease of intracellular ATP concentration caused by oligomycin ([2]; oligomycin 10 μM for 27 hours) | deformation of the cells (cell damage) caused by thapsigargin [3] | band of cleaved caspase 3 (about 17 kDa) induced by thapsigargin [4] | swelling of corneal endothelial cells during preservation (rabbit corneas [5]) | swelling of corneal stroma during preservation (rabbit corneas [5]) | corneal epitheliums and cornea thicknesses versus control group (rabbit corneas [5]) | TUNEL-positive cells among corneal epithelial cells versus control group [6] | corneal endothelial cells (Na+/K+ ATPase staining) versus control group [7] | swelling of the corneal stroma and the corneal endothelial cells (electron microscopy) (rabbit corneas [8]) | vacuolization of the corneal epithelial cells and loss of microvilli (rabbit corneas [8]) |
| --- | --- | --- | --- | --- | --- | --- | --- | --- | --- | --- | --- | --- | --- | --- | --- |
| Cc1cc(F)ccc1-c1ccc(N=Nc2cc(S(=O)(=O)[O-])c3ccccc3c2N)cn1.[Na+] [KUS121, 4-amino-3-[6-(4-fluoro-2-methylphenyl)pyridine-3-ylazo]naphthalene-1-sulfonic acid sodium salt] | the cell death was suppressed | the cell death was suppressed | the cell death was suppressed | the decrease was suppressed | the decrease was suppressed | the decrease was suppressed | the deformation was suppressed | hardly detected | the cell swelling was suppressed until week 2 | the corneal stroma swelling was kept mild until week 4 | maintained better | fewer through the test period than in the control group | maintained better | observed in the control, but not in the corneas preserved in a solution containing KUS121 | observed in the control, but not in the corneas preserved in a solution containing KUS121 |
| CCCCOc1c(C=O)cc(C)cc1-c1ccc(N=Nc2cc(S(=O)(=O)[O-])c3ccccc3c2N)cn1.[Na+] [KUS187, 4-amino-3-[6-(3-formyl-2-butoxy-5-methylphenyl)pyridine-3-ylazo]naphthalene-1-sulfonic acid sodium salt] | – | – | – | – | – | – | – | – | the cell swelling was suppressed until week 2 | the corneal stroma swelling was kept mild until week 4 | maintained better | fewer through the test period than in the control group | maintained better | – | – |
